Like-named read-outs stand apart in the source and are kept apart here.
Columns and labels:
virus attachment = experiment: cell-based p24 attachment assay; design: species or system HIV-1
Experimental: The cell-based p24 attachment assay was performed as described in Rice (1995) Science 270:1194-1197. Viral inactivation assays were carried out as described in Rice (1995) Science 270:1194-1197, and Turpin (1997) supra, with minor modifications. Briefly, MAGI-CCR-5 cells were plated (4×10^4 cells per well) in flat bottomed 2-cm well plates for 24 h, after which the culture media was removed and compound-treated virus was added. The virus used was obtained by transient transfection of pNL4-3 into HeLa cells yielding the replication competent NL4-3 virus. Virus containing supernatants were treated for 2 h at 37° C. after which residual compound was removed by centrifugation (18,000×g, 1 h, 4° C.). Virus pellets were resuspended and placed on the MAGI-CCR-5 monolayers and cultured for 48 h. Monolayers were fixed and stained with X-gal solution and blue cells counted.

[1] = target: T1, recombinant HIV-1 reverse transcriptase (Human immunodeficiency virus type 1 group M subtype B, UniProt P03366); experiment: HIV-1 reverse transcriptase assay (rAdT and rCdG template/primer); type: biochemical
T1 construct: recombinant HIV-1 reverse transcriptase; S. Hughes, ABL Basic Research NCI-FCRDC, Frederick Md
Experimental: (§1) The 5-bromovaleroyl thioester, compound 44, and two 5-pyridiniovaleroyl thioesters, compounds 45and 47, were analyzed in mechanistic and target-based assays. […] Assays for activity against HIV-1 reverse transcriptase rAdT (template/primer) and rCdG (template/primer) using recombinant HIV-1 reverse transcriptase (S. Hughes, ABL Basic Research NCI-FCRDC, Frederick Md.) were performed as described by Rice (1997) supra. Substrate cleavage of recombinant HIV-1 protease in the presence of test compounds using an HPLC-based methodology with the artificial substrate Ala-Ser-Glu-Asn-Try-Pro-Ile-Val-amide (Multiple Peptide Systems, San Diego Calif.) was performed as described by Rice (1997) supra. The ability of recombinant HIV-1 integrase (S. Hughes, ABL Basic Research NCI-FCRDC, Frederick Md.) to carry out 3′ processing and strand transfer activities in the presence of test compounds was performed as described by Buckheit (1994) AIDS Res. Hum. Retroviruses 10:1497-1506, and Turpin (1998) Antimicrob. Agents Chemother. 42: 487-494.

CEM-SS cells = experiment: cells; type: cell-based; conditions: for IC50: 50% cytotoxicity, read-out: IC50
U1 cells = experiment: Cell viability of TNFα-induced U1 cells; type: cell-based
Experimental: Thiolester compounds were also tested for their ability to. inhibit HIV-1 replication in TNFα-induced U1 and ACH-2 cells. U1 cells were induced with 5 ng/ml of TNFα in the presence of various concentrations of the thiolesters 44, 45 or 47. Forty-eight hours later the cultures were characterized for virus p24 antigen production and cell viability. […] Compound 44 killed 60% of the cells at 200 μM. […] Precursor processing evaluation performed as described by Turpin (1997) Antiviral Chem. Chemother. 8:60-69. Thus, thiolester PATEs initiate intracellular disulfide cross-linking of precursor polyproteins during late phase virus assembly and mediate a direct virucidal effect via an attack on the mature NCp7 retroviral zinc fingers in the cell-free virus.

[2] = target: T2, recombinant HIV-1 protease (Human immunodeficiency virus type 1 group M subtype B, UniProt P03366); experiment: HIV-1 protease substrate cleavage (HPLC) assay; type: biochemical
T2 construct: recombinant HIV-1 protease
Experimental: as §1

[3] = target: T3, recombinant HIV-1 NCp7 protein (Human immunodeficiency virus type 1 group M subtype B, UniProt P03347); experiment: Trp37 zinc finger fluorescence (zinc ejection) assay; type: biochemical; conditions: for zinc finger reactivity in the presence of glutathione (in words): 2 molar excess of glutathione; for Zinc Finger Reactivity RFU/min: average decrease in relative fluorescence units over 30 min; for inhibition at 2000 µM (stock): Table 8, GSH +: 2 mM compound, 2 h at 37° C. with 4 mM reduced glutathione, 30 min incubation, read-out: Zinc Finger Reactivity % Decrease
T3 construct: recombinant HIV-1 NCp7 protein

[4] = Human immunodeficiency virus 1, Table 7, high dose test 100 μM, read-out: Attachment I50

SMILES | inhibition of virus attachment (in words) (virus attachment) | IC50 (virus attachment; [4]) | inhibition of HIV-1 reverse transcriptase (in words) [1] | IC50 (CEM-SS cells; Table 5) | cellular toxicity in U1 cells (U1 cells; high test dose of 100 μM) | inhibition of HIV-1 protease (in words) [2] | zinc finger reactivity (in words) [3] | zinc finger reactivity in the presence of glutathione (in words) [3] | Zinc Finger Reactivity RFU/min ([3]; Table 5) | Zinc Finger Reactivity RFU/min ([3]; Table 6) | inhibition at 2000 µM (stock) [3] | cellular toxicity in U1 cells (U1 cells; higher dose testing (300 μM)) | zinc finger reactivity / zinc ejection rate [3] | also measured
CC(=O)NS(=O)(=O)c1ccc(NC(=O)c2ccccc2SC(=O)CCCCBr)cc1 [Compound 44, N-[2-(5-bromovaleroylthio)benzoyl]sulfacetamide] | did not inhibit | > 100 µM | did not inhibit | 184.5 µM | No cellular toxicity | did not inhibit | promoted metal ion (zinc) ejection | maintained the capacity to attack the cysteine thiols | 1.8 RFU/min | 1.8 RFU/min | 28% | – | – | cells killed (U1 cells; U1 cells, at 200 μM): 60%
CC(=O)NS(=O)(=O)c1ccc(NC(=O)c2ccccc2SC(=O)CCCC[n+]2ccccc2)cc1 [Compound 45, N-[2-(5-pyridinio-valeroylthio)benzoyl]sulfacetamide bromide] | did not inhibit | > 100 µM | did not inhibit | >316 µM | No cellular toxicity | did not inhibit | promoted metal ion (zinc) ejection | maintained the capacity to attack the cysteine thiols | 3.6 RFU/min | 3.6 RFU/min | 36.9% | no toxicity | 3.6 RFU/min | IC50 (CEM-SS cells; Table 10): >316 µM; cellular toxicity (in words) (CEM-SS cells; high test dose of 316 μM): no toxicity; Zinc Finger Reactivity RFU/min ([3]; Table 10): 3.6 RFU/min
O=C(CCCC[n+]1ccccc1)Sc1ccccc1C(=O)Nc1ccc(S(=O)(=O)c2ccc([N+](=O)[O-])cc2)cc1 [Compound 47] | did not inhibit | – | did not inhibit | – | No cellular toxicity | did not inhibit | promoted metal ion (zinc) ejection | maintained the capacity to attack the cysteine thiols | – | 4.1 RFU/min | 21.1% | no toxicity | – | IC50 (virus attachment; Human immunodeficiency virus 1, read-out: Attachment I50): > 100 µM; IC50 [1]: > 100 µM; IC50 ([1]; read-out: Reverse transcriptase rCdG I50, Table 7, rCdG template/primer, high dose test 100 μM): > 100 µM; IC50 [2]: > 100 µM
O=C(O)CCCC[n+]1ccccc1.[Br-] [Compound 53, 5-pyridiniovaleric acid] | – | – | – | – | – | – | – | – | – | 4 RFU/min | – | – | 4 RFU/min | IC50 (CEM-SS cells; Homo sapiens, CEM-SS, Table 6): > 316 µM

— patent publication US7625917B2, “Thiolesters and uses thereof” (priority 1998, dated 2009)
